# Tests used:
# MRGPRX2 [1] = molecular target: T1, MRGPRX2 (Homo sapiens, UniProt Q96LB1); assay: MRGPRX2 β-Arrestin recruitment assay (PathHunter); format: cell-based; parameters: host or cells: CHO-K1 (PathHunter); details: PathHunter CHO-K1 MRGPRX2 β-Arrestin cell line; agonist Cortistatin 14 0.25 μM
# T1 sequence (Q96LB1 1-330): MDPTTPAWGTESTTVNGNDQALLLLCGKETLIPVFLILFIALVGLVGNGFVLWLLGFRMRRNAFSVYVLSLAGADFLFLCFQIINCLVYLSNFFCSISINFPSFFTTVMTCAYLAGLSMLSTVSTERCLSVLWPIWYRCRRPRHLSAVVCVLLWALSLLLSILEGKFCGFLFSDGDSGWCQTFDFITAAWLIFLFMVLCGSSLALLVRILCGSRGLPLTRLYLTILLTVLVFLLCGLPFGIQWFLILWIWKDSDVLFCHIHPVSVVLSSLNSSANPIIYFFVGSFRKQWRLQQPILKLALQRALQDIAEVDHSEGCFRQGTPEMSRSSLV
# Source text: Example C: MRGPRX2 P-Arrestin Assay
# This assay measures compound inhibition of P-Arrestin recruitment, which is part of the G protein-independent pathway that results from the ligand-activated GPCR phosphorylation by specific GPCR kinases. The PathHunter CHO-K1 MRPGRX2 B-Arrestin Cell line stably expressing ProLink tagged MRGPRX2 and Enzyme Acceptor Tagged B-Arrestin was purchased from Eurofins DiscoverX, (Fremont, CA).
# The cells were maintained in culture medium from the Europhins DiscoverX Cell Culture Kit-107 which includes FBS, hygromycin B and G418. For the assay, the cells were harvested and were resuspended with Cell Plating Reagent 2 (Eurofins DiscoverX). Cells were added 10000 cells in 25 μL/well to a 384-well black cell culture plate (Greiner VWR, Radnor, PA) which contained 125 nL/well of compound at a selected serially diluted concentration range or DMSO. The plate was incubated at 37° C. with 5% CO2 for 1 h. 2 μL/well of agonist Cortistatin 14 was diluted in Protein Dilution Buffer, (Eurofins DiscoverX) for a final concentration of 0.25 μM, was added and the plate was incubated at 37° C. with 5% CO2 for 90 min. 14 μL/well of Detection Reagent Mix (PathHunter Detection Kit, Eurofins DiscoverX) was added to the plates and further incubated for 1 h in the dark. Plates were read on the PHERAstar microplate reader (BMG Labtech Cary, NC) measuring luminescence 0.1 to 1 second per well. Data was normalized using DMSO only wells and wells with high concentration of reference antagonist as controls. Compound IC50 curves were globally fitted with 3- or 4-parameter Hill equation in a Genedata Screener (Genedata Basel, Switzerland).
# MRGPRX2 [2] = molecular target: T1, MRGPRX2; assay: MRGPRX2 IP1 HTRF assay; format: cell-based; parameters: host or cells: CHO-K1; details: CHO-K1 cells stably expressing human MRGPRX2; IP1 accumulation; agonist Cortistatin 14 1 μM
# Source text: Example B: MRGPRX2 IP1 HTRF Assay
# This assay measures compound inhibition of myo-Inositol 1 phosphate (IP1) accumulation in CHO-K1 cells. Chinese hamster ovary (CHO-K1) cells stably expressing human MRGPRX2 were purchased from GenScript (Piscataway, NJ).
# For the HTRF IP1 determination, an IP-One GqKit (Perkin Elmer Cisbio, Waltham, MA), which includes all reagents and buffers in this protocol, was used. The cells were maintained in culture medium (Ham's F-12K) containing 10% (v/v) FBS, and 200 μg/mL Zeocin. For the assay, the cells were harvested and resuspended in culture medium with 2% FBS and without Zeocin, then were passed through a 40 μm filter. Cells were added at 20000 cells in a 5 μL/well to a 384-well white small volume cell culture plate (Greiner VWR, Radnor, PA) which contained 50 nL/well of test compound serially diluted at a selected concentration range in DMSO. 5 μL/well of prepared 2× Stimulation Buffer2 was then added to plates and was incubated at 37° C. with 5% CO2 for 1 h. 5 μL/well of agonist Cortistatin 14 (Bio-TechneR&D Systems, Minneapolis, MN) in 1× Stimulation Buffer2, for a 1 μM final concentration, was then added to plates and incubated at 37° C. with 5% CO2 for 1 h. 6 μL/well of 1:20 diluted Detection Reagent Mix (d2 and Cryptate) was added to the plates and incubated for 1 h in the dark. Plates were read on the PHERAstar microplate reader (BMG Labtech Cary, NC) to determine the HTRF ratio of the acceptor and donor emission signals. The IP1 concentrations were calculated from a standard curve following the IP-One GQ kit instructions. Wells with DMSO only and wells with high concentration of reference antagonist were used as controls for normalization. Compound IC50 curves were globally fitted with 3- or 4-parameter Hill equation in a Genedata Screener (Genedata Basel, Switzerland).
SMILES,IC50 (MRGPRX2 [1]) [nM],IC50 (MRGPRX2 [2]) [nM]
"O=C(N[C@H]1CC[C@H](O)CC1)N1CC(CNc2cccc3nc(C(F)(F)F)cn23)(c2ccc(F)cc2)C1 [Example 102, 3-(4-Fluorophenyl)-N-((1r,4r)-4-hydroxycyclohexyl)-3-(((2-(trifluoromethyl)imidazo[1,2-a]pyridin-5-yl)amino)methyl)azetidine-1-carboxamide]",0.1 to 100,0.1 to 100
"O=C(N[C@H]1CC[C@H](O)CC1)N1CC(CNc2cc(C(F)(F)F)nc3cc(C(F)(F)F)nn23)(c2ccc(F)c(F)c2)C1 [Example 100, 3-(((2,5-Bis(trifluoromethyl)pyrazolo[1,5-a]pyrimidin-7-yl)amino)methyl)-3-(3,4-difluorophenyl)-N-((1r,4r)-4-hydroxycyclohexyl)azetidine-1-carboxamide]",0.1 to 100,0.1 to 100
"O=C(NC[C@H]1C[C@H](O)C1)N1CC(CNc2cc(C(F)(F)F)nc3cc(C(F)(F)F)nn23)(c2ccc(F)cc2)C1 [Example 92, 3-(((2,5-Bis(trifluoromethyl)pyrazolo[1,5-a]pyrimidin-7-yl)amino)methyl)-3-(4-fluorophenyl)-N-(((1r,3r)-3-hydroxycyclobutyl)methyl)azetidine-1-carboxamide]",0.1 to 100,0.1 to 100
"CC(C)(O)CNC1CC(CNc2cc(C(F)(F)F)nc3cc(C(F)(F)F)nn23)(c2ccc(F)cc2)C1 (centres unmarked) [Example 73, 1-((3-(((2,5-Bis(trifluoromethyl)pyrazolo[1,5-a]pyrimidin-7-yl)amino)methyl)-3-(4-fluorophenyl)cyclobutyl)amino)-2-methylpropan-2-ol]",0.1 to 100,0.1 to 100
"CC(C)(O)CNC1CCC(CNc2cc(C(F)(F)F)nc3cc(C(F)(F)F)nn23)(c2ccc(F)cc2)CC1 (centres unmarked) [Example 74, 1-((4-(((2,5-Bis(trifluoromethyl)pyrazolo[1,5-a]pyrimidin-7-yl)amino)methyl)-4-(4-fluorophenyl)cyclohexyl)amino)-2-methylpropan-2-ol]",0.1 to 100,0.1 to 100
"[2H]C([2H])([2H])C([2H])([2H])c1cc(NCC2(c3ccc(F)cc3)CN(C(=O)N[C@H]3CC[C@H](O)CC3)C2)n2nc(C(F)(F)F)cc2n1 [Example 112, 3-(((5-(Ethyl-d5)-2-(trifluoromethyl)pyrazolo[1,5-a]pyrimidin-7-yl)amino)methyl)-3-(4-fluorophenyl)-N-((1r,4r)-4-hydroxycyclohexyl)azetidine-1-carboxamide]",0.1 to 100,0.1 to 100
"O=C(N[C@@H]1CC[C@@H](O)C1)N1CCC(CNc2cc(C(F)(F)F)nc3cc(C(F)(F)F)nn23)(c2ccc(F)cc2)CC1 [Example 56, 4-(((2,5-Bis(trifluoromethyl)pyrazolo[1,5-a]pyrimidin-7-yl)amino)methyl)-4-(4-fluorophenyl)-N-((1R,3R)-3-hydroxycyclopentyl)piperidine-1-carboxamide]",0.1 to 100,0.1 to 100

# From patent US20250084087A1, “BICYCLIC HETEROCYCLES AS MRGPRX2 ANTAGONISTS” (Incyte Corporation, priority 2023, published 2025)
